Experiments:
[1] = system: Hippocampal Cultures; test: Neuroprotection from glutamate (excitotoxicity), propidium iodide assay; type: cell-based; conditions: Rattus norvegicus, read-out: NP from Glutamate PI EC50
Excerpt: (§1) Cell cultures: All compounds are screened with dissociated hippocampal cultures derived from embryonic day 18 rats as the primary test system. With this preparation, primary neurons are used to test for toxicity as well as neuroprotection in a highly relevant experimental system to epilepsy. In brief, hippocampal tissue are obtained commercially through Brain Bits (Springfield, Ill.) and cultures prepared as previously described by Brewer (Brewer, G. J. Serum-free B27/neurobasal medium supports differentiated growth of neurons from the striatum, substantia nigra, septum, cerebral cortex, cerebellum and dentate gyms, J. Neurosci. Res. 1995, 42, 674-683.). The hippocampal neurons are platted at low density (10,000 cell/well) in a 96-well format and maintained in serum-free medium consisting of Neurobasal Medium supplemented with B27 and GlutaMAX (Gibco). Pre-coated poly-L-lysine coated plates are used because of the preferential adherence and survival of hippocampal neurons on this matrix support.
(§2) Potent neuroprotection is the distinguishing characteristic that separates this program's anticonvulsants from all other commercial drugs for epilepsy. The experimental details and the rationale for the implemented assays are essential in differentiating these compounds from that of others. The central objective of all neuroprotective assays was their relevancy to excitotoxicity and oxidative stress related to epilepsy. Both the amount of glutamate and hydrogen peroxide used in the assays, as well as the time of treatment and duration of the experiment, were designed to be relevant to epilepsy. Further, all time parameters employed in these studies were empirically determined to be within the limits of reversible toxic events, yet using amounts of glutamate and hydrogen peroxide that were relevant to the disease. In regard to glutamate toxicity, a critical feature was the duration of treatment of the hippocampal neurons. The rational for using a short 5 min treatment with glutamate was based on the observation of Randall and Thayer (Randall, R. D.; Thayer, S. A. Glutamate-induced calcium transient triggers calcium overload and neurotoxicity in rat hippocampal neurons, J. Neurosci. 1992, 12, 1882-1895). […] The rationale is that this intense burst of glutamate and resulting calcium overload is relevant to seizures and therefore was important data to capture in the screening assay. The amount of glutamate (30 μM) employed in our screening was based on the basal levels of glutamate observed in microdialysis measurements of hippocampus from epileptogenic patients (Cavus et al. Decreased hippocampal volume on MRI is associated with increased extracellular glutamate in epilepsy patients, Epilepsia, 2008, 49, 1358-1366.). In regard to hydrogen peroxide, the amount employed (10 μM) was detected in the hippocampus of rats after kainate-induced status epilepticus (Jarrett et. al., Mitochondrial DNA damage and impaired base excision repair during epileptogenesis, Neurobiol. Dis. 2008, 30, 130-138). To produce neural damage and death with these amounts of glutamate and hydrogen peroxide, the cultures were changed to a medium with significant depletion of antioxidant components in the defined medium supplement B-27 just prior to treatment with the compounds. This was performed to obtain a significant and reproducible toxic signal in the hippocampal neurons and because loss of antioxidant control may be a component of epileptogenesis (Waldbaum and Patel, Mitochondria, oxidative stress and temporal lobe epilepsy, Epilepsy Res. 2010 88, 23-45.; Wu et al., Mitochondrial DNA mutation-elicited oxidative stress, oxidative damage, and altered gene expression in cultured cells of patients with MERRF syndrome, Mol. Neurobiol. 2010, 41, 256-266.). Neuroprotection studies with hydrogen peroxide were conducted with cultures that were between day 12 and day 18. Studies of neuroprotection glutamate were conducted between day 19 and day 22. […]

[2] = system: Hippocampal Cultures; test: Neuroprotection from glutamate (excitotoxicity), CFDA assay; type: cell-based; conditions: Rattus norvegicus, read-out: NP from Glutamate CFDA EC50
Excerpt: as §1, §2

[3] = system: Hippocampal Cultures; test: Neuroprotection from hydrogen peroxide (oxidative stress), propidium iodide assay; type: cell-based; conditions: Rattus norvegicus, read-out: NP from HP PI EC50
Excerpt: as §1, §2

[4] = system: Hippocampal Cultures; test: Neuroprotection from hydrogen peroxide (oxidative stress), CFDA assay; type: cell-based; conditions: Rattus norvegicus, read-out: NP from HP CFDA EC50
Excerpt: as §1, §2

[5] = system: mice; test: Maximal Electroshock Test (anti-seizure test); type: in vivo
Excerpt: Seizure-related assays, Maximal electroshock test: The most definitive assay for antiseizure activity is the maximal electroshock (MES) test (Swinyard, E. A. Laboratory evaluation of antiepileptic drugs: review of laboratory methods, Epilepsia, 1969, 10, 107-119.). […] With both rodent assays, the duration of action is of high importance as well as the potency of the response.

[6] = 30 μM glutamate, hippocampal cultures, propidium iodide (cell death)
[7] = 30 μM glutamate, hippocampal cultures, CFDA (neuronal viability)
[8] = 10 μM hydrogen peroxide, hippocampal cultures, propidium iodide (cell death)
[9] = 10 μM hydrogen peroxide, hippocampal cultures, CFDA (neuronal viability)

Row | SMILES | EC50 [1, 6] [nM] | EC50 [2, 7] [nM] | EC50 [3, 8] [nM] | EC50 [4, 9] [nM] | EC50 [1] [nM] | EC50 [2] [nM] | EC50 [3] [nM] | EC50 [4] [nM] | MES Duration ([5]; at 100 mg/kg) | MES Duration ([5]; no dose given) [h]
1 | NS(=O)(=O)NCCC(O)c1ccccc1 (stereo not shown) [Example 9, N-(3-phenyl-3-hydroxy-propyl)-sulfamide] | > 300000 | 300000 | > 300000 | > 300000 | – | – | – | – | – | –
2 | CC(O)(CCNS(N)(=O)=O)c1ccccc1Cl (stereo not shown) [Example 3, 3-(2-Chloro-phenyl)-3-hydroxybutanyl-1-sulfamide] | – | – | – | – | > 300000 | > 300000 | > 300000 | 300000 | – | –
3 | COc1ccccc1C(O)CCNS(N)(=O)=O (stereo not shown) [Example 14, 3-(2-methoxy-phenyl)-3-hydroxypropyl-1-sulfamide] | – | – | – | – | 100 | 10 | 10 | 10000 | – | –
4 | CCc1ccccc1C(O)CCNS(N)(=O)=O (stereo not shown) [Example 12, 3-(2-Ethyl-phenyl)-3-hydroxypropyl-1-sulfamide] | 10000 | 10 | 10 | > 300000 | – | – | – | – | – | –
5 | NS(=O)(=O)NCCC(O)c1ccccc1[N+](=O)[O-] (stereo not shown) [Example 21, 3-(2-Nitro-phenyl)-3-hydroxypropyl-1-sulfamide] | – | – | – | – | 10000 | > 300000 | – | – | – | –
6 | NS(=O)(=O)NCCC(O)c1ccccc1Br (stereo not shown) [Example 13, 3-(2-bromo-phenyl)-3-hydroxypropyl-1-sulfamide] | 100000 | 10000 | 10000 | 300000 | – | – | – | – | – | –
7 | Cc1ccccc1C(O)CCNS(N)(=O)=O (stereo not shown) [Example 11, 3-(2-Methyl-phenyl)-3-hydroxypropyl-1-sulfamide] | > 300000 | > 300000 | – | – | – | – | – | – | – | –
8 | NS(=O)(=O)NCC[C@@H](O)c1ccccc1Cl [Example 17, (R)-3-(2-Chloro-phenyl)-3-hydroxypropyl-1-sulfamide] | – | – | > 300000 | > 300000 | – | – | – | – | – | –
9 | CC(O)(CCNS(N)(=O)=O)c1ccccc1F (stereo not shown) [Example 10, N-[3-(2-Fluoro-phenyl)-3-hydroxy-butyl]-sulfamide] | 10000 | 10000 | 300000 | 100 | – | – | – | – | – | –
10 | NS(=O)(=O)NCC[C@H](O)c1ccccc1F [Example 15, (S)-3-(2-Fluoro-phenyl)-3-hydroxypropyl-1-sulfamide] | – | – | – | – | 10 | 10 | 1 | 1 | 4 hrs at 100 mg/kg | –
11 | NS(=O)(=O)NCC[C@@H](O)c1ccccc1F [Example 16, (R)-3-(2-Fluoro-phenyl)-3-hydroxypropyl-1-sulfamide] | – | – | – | – | – | – | > 300000 | > 300000 | – | –
12 | NS(=O)(=O)NCCC(O)c1c(F)cccc1F (stereo not shown) [Example 22, 3-(2,6-Difluoro-phenyl)-3-hydroxypropyl-1-sulfamide] | – | – | – | – | 300000 | 100000 | 10 | 1000 | – | –
13 | CC(C)(CNS(N)(=O)=O)C(O)c1ccccc1F (stereo not shown) [Example 5, 3-(2-Fluoro-phenyl)-3-hydroxy-2,2-dimethylpropyl-1-sulfamide] | – | – | – | – | 100 | 100 | > 300000 | > 300000 | – | –
14 | NS(=O)(=O)NCCC(O)c1csc2ccccc12 (stereo not shown) [Example 2, 3-Benzo[b]thiophen-3-yl-3-hydroxypropyl-1-sulfamide] | – | – | – | – | 3000 | 100000 | 30000 | 3000 | – | –
15 | NS(=O)(=O)N1CCC(O)(c2ccccc2F)CC1 [Example 19, 4-(2-Fluorophenyl)-4-hydroxypiperidine-1-sulfonamide] | 1 | 1000 | 1000 | 1000 | – | – | – | – | 6 hrs at 100 mg/kg | –
16 | NS(=O)(=O)NCCC(O)c1ccccc1-c1ccccc1 (stereo not shown) [Example 23, 3-(2-Phenyl-phenyl)-3-hydroxypropyl-1-sulfamide] | 300000 | 10000 | – | – | – | – | – | – | – | –
17 | NS(=O)(=O)NCC[C@H](O)c1ccccc1Cl [Example 18, (S)-3-(2-Chloro-phenyl)-3-hydroxypropyl-1-sulfamide] | 100 | 1000 | 1 | 1 | – | – | – | – | – | –
18 | NS(=O)(=O)NCCC(O)c1ccccc1-c1cncc(Cl)c1 (stereo not shown) [Example 24, 3-[2-(5-Chloro-pyridine-3-yl)-phenyl]-3-hydroxypropyl-1-sulfamide] | > 300000 | 10000 | – | – | – | – | – | – | – | –
19 | NS(=O)(=O)NCCC(O)c1cc(F)ccc1F (stereo not shown) [Example 7, 3-(2,5-Difluoro-phenyl)-3-hydroxypropyl-1-sulfamide] | – | – | – | – | 3000 | 30000 | 1 | 10 | – | –
20 | NS(=O)(=O)NCCC(O)c1ccccc1F (stereo not shown) [Example 6, 3-(2-Fluoro-phenyl)-3-hydroxypropyl-1-sulfamide] | 100 | 1000 | 10 | 10 | – | – | – | – | 4 hr at 100 mg/kg | –
21 | NS(=O)(=O)NCCC(O)c1ccccc1Cl (stereo not shown) [Example 1, 3-(2-Chloro-phenyl)-3-hydroxypropyl-1-sulfamide] | 100 | 100 | 1000 | 30000 | – | – | – | – | – | 2
22 | NS(=O)(=O)NCCC(O)c1ccc(F)cc1Cl (stereo not shown) [Example 8, N-[3-(2-Chloro-4-fluoro-phenyl)-3-hydroxy-propyl]-sulfamide] | 10000 | > 300000 | > 300000 | > 300000 | – | – | – | – | – | –
23 | NS(=O)(=O)NCCC(O)c1ccccc1C(F)(F)F (stereo not shown) [Example 20, 3-(2-Trifluoromethyl-phenyl)-3-hydroxypropyl-1-sulfamide] | – | – | – | – | > 300000 | > 300000 | – | – | – | –
